Assay results taken from ChEMBL document CHEMBL4229450, “The synthetic chalcone derivative 2-hydroxy-3',5,5'-trimethoxychalcone induces unfolded protein response-mediated apoptosis in A549 lung cancer cells” (Bioorg Med Chem Lett, 2018).
The source made the active and inactive calls. No cut-off for these calls is given here.

Experiments:
A549 [1] = experiment: Induction of apoptosis in human A549 cells assessed as late apoptotic cells at 20 uM after 24 hrs by Annexn V-FITC/propidium iodide staining based flow cytometry (reference value: 3%); type: functional
A549 [2] = experiment: Induction of apoptosis in human A549 cells assessed as necrotic cells at 20 uM after 24 hrs by Annexn V-FITC/propidium iodide staining based flow cytometry (reference value: 10%); type: functional
A549 [3] = experiment: Anticlonogenic activity against human A549 cells at 20 uM after 7 days by crystal violet staining based assay; type: functional, cell-based
NCI-H460 = experiment: Anticlonogenic activity against human NCI-H460 cells at 20 uM after 7 days by crystal violet staining based assay; type: functional, cell-based
NCI-H1299 = experiment: Anticlonogenic activity against human NCI-H1299 cells at 20 uM after 7 days by crystal violet staining based assay; type: functional, cell-based
A549 [4] = experiment: Growth inhibition of human A549 cells assessed as cell viability at 5 uM after 24 hrs by CCK8 assay relative to control; type: functional; conditions: A549, 24 h, read-out: Activity
A549 [5] = experiment: Growth inhibition of human A549 cells assessed as cell viability at 10 uM after 24 hrs by CCK8 assay relative to control; type: functional; conditions: A549, 24 h, read-out: Activity
A549 [6] = experiment: Growth inhibition of human A549 cells assessed as cell viability at 20 uM after 24 hrs by CCK8 assay relative to control; type: functional; conditions: A549, 24 h, read-out: Activity
A549 [7] = experiment: Cell cycle arrest in human A549 cells assessed as accumulation at sub-G1 phase at 20 uM after 24 hrs by propidium iodide staining based flow cytometry (reference value: 2 to 2.3%); type: functional
A549 [8] = experiment: Cell cycle arrest in human A549 cells assessed as accumulation at G1 phase at 20 uM after 24 hrs by propidium iodide staining based flow cytometry (reference value: 57%); type: functional
A549 [9] = experiment: Cell cycle arrest in human A549 cells assessed as accumulation at S phase at 20 uM after 24 hrs by propidium iodide staining based flow cytometry (reference value: 25.6 to 26%); type: functional
A549 [10] = experiment: Cell cycle arrest in human A549 cells assessed as accumulation at G2/M phase at 20 uM after 24 hrs by propidium iodide staining based flow cytometry (reference value: 14.8 to 15%); type: functional
A549 [11] = experiment: Induction of apoptosis in human A549 cells assessed as live cells at 20 uM after 24 hrs by Annexn V-FITC/propidium iodide staining based flow cytometry (reference value: 83%); type: functional
A549 [12] = experiment: Induction of apoptosis in human A549 cells assessed as early apoptotic cells at 20 uM after 24 hrs by Annexn V-FITC/propidium iodide staining based flow cytometry (reference value: 5%); type: functional
A549 [13] = experiment: Induction of apoptosis in human A549 cells assessed as increase in cleaved caspase-9 expression at 20 uM after 12 hrs by immunoblot analysis; type: functional, cell-based
A549 [14] = experiment: Induction of apoptosis in human A549 cells assessed as increase in cleaved caspase-7 expression at 20 uM after 12 hrs by immunoblot analysis; type: functional, cell-based
A549 [15] = experiment: Induction of apoptosis in human A549 cells assessed as increase in cleaved PARP expression at 20 uM after 12 hrs by immunoblot analysis; type: functional, cell-based
A549 [16] = experiment: Induction of apoptosis in human A549 cells assessed as increase in cleaved caspase-7 expression at 20 uM after 18 hrs by Alexa Fluor-488/Hoechst 33258 staining based fluorescence microscopic method; type: functional, cell-based
A549 [17] = experiment: Induction of apoptosis in human A549 cells assessed as disruption of microtubule organization at 20 uM after 18 hrs by Alexa Fluor-488/Hoechst 33258 staining based fluorescence microscopic method; type: functional, cell-based
A549 [18] = experiment: Induction of apoptosis in human A549 cells assessed as nuclear condensation and fragmentation at 20 uM after 18 hrs by Alexa Fluor-488/Hoechst 33258 staining based fluorescence microscopic method; type: functional, cell-based
A549 [19] = experiment: Induction of apoptosis in human A549 cells assessed as increase in cleaved caspase-7 expression at 20 uM pre-treated with pan-caspase inhibitor zVAD-FMK fopr 30 mins before compound incubation for 12 hrs by immunoblot analysis; type: functional, cell-based
A549 [20] = experiment: Induction of apoptosis in human A549 cells assessed as increase in cleaved PARP expression at 20 uM pre-treated with pan-caspase inhibitor zVAD-FMK fopr 30 mins before compound incubation for 12 hrs by immunoblot analysis; type: functional, cell-based
MDA-MB-231 = experiment: Induction of apoptosis in human MDA-MB-231 cells assessed as increase in cleaved PARP expression at 20 uM after 12 hrs by immunoblot analysis; type: functional, cell-based
MCF-12A = experiment: Induction of apoptosis in human MCF12A cells assessed as increase in cleaved PARP expression at 20 uM after 12 hrs by immunoblot analysis; type: cell-based
[21] = target: T1, Eukaryotic translation initiation factor 2-alpha kinase 3 (Homo sapiens) (UniProt Q9NZJ5); experiment: Induction of ER stress-activated unfolded protein response pathway in human A549 cells assessed as increase in PERK phosphorylation at Thr981 residue at 20 uM up to 6 hrs by immunoblot analysis; type: cell-based
T1 sequence (whole entry): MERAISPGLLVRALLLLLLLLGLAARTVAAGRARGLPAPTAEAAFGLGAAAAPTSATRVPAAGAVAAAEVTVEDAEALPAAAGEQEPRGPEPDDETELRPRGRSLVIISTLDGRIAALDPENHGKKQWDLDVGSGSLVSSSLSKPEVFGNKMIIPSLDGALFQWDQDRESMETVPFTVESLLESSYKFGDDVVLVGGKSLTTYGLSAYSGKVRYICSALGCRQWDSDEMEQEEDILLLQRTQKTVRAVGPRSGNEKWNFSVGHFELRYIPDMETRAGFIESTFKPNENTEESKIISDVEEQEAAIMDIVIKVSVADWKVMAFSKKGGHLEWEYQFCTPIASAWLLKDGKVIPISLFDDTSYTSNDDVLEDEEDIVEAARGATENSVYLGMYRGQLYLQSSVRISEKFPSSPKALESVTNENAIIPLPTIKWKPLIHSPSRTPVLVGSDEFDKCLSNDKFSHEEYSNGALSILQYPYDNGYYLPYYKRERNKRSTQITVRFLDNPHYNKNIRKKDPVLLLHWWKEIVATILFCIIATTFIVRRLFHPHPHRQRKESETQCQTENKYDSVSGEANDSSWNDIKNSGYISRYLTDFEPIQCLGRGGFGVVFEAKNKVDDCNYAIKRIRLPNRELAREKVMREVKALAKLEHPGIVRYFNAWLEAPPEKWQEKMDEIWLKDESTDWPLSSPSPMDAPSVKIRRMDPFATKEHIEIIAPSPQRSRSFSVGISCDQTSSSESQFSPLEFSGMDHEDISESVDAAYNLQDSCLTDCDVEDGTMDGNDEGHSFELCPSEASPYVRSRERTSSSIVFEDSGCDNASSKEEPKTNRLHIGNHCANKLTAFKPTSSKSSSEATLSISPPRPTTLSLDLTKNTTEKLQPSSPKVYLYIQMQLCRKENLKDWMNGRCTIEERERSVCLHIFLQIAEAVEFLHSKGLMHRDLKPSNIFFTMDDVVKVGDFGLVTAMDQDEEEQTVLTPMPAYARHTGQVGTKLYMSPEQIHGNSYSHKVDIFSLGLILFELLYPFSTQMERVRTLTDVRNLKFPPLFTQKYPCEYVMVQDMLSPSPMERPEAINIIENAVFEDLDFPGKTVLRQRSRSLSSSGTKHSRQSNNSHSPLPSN

A549 [22] = experiment: Induction of ER stress-activated unfolded protein response pathway in human A549 cells assessed as accumulation of GRP78 protein level at 20 uM after 12 hrs by immunoblot analysis; type: functional, cell-based
A549 [23] = experiment: Induction of ER stress-activated unfolded protein response pathway in human A549 cells assessed as accumulation of IRE1alpha protein level at 20 uM after 12 hrs by immunoblot analysis; type: functional, cell-based
A549 [24] = experiment: Induction of ER stress-activated unfolded protein response pathway in human A549 cells assessed as increase in IRE1alpha-mediated splicing of XBP1 mRNA by measuring increase in 540-base pair fragments at 20 uM within 3 hrs by RT-PCR analysis; type: functional, cell-based
A549 [25] = experiment: Induction of ER stress-activated unfolded protein response pathway in human A549 cells assessed as increase in IRE1alpha-mediated splicing of XBP1 by measuring increase in XBP1 (56 kDa) level at 20 uM after 6 to 12 hrs by immunoblot analysis; type: functional, cell-based
A549 [26] = experiment: Induction of ER stress-activated unfolded protein response pathway in human A549 cells assessed as increase in ATF4 expression at 20 uM after 6 hrs by immunoblot analysis; type: functional, cell-based
A549 [27] = experiment: Induction of ER stress-activated unfolded protein response pathway in human A549 cells assessed as increase in CHOP expression at 20 uM after 6 to 12 hrs by immunoblot analysis; type: functional, cell-based
A549 [28] = experiment: Induction of ER stress-activated unfolded protein response pathway in human A549 cells harboring pFA-CHOP-GAL4/p-GAL4-DBD-Luc assessed as increase in CHOP trans-acting activity after 12 hrs by luciferase reporter gene assay; type: functional, cell-based
A549 [29] = experiment: Induction of ER stress-activated unfolded protein response pathway in human A549 cells assessed as increase in Bim expression at 20 uM after 12 hrs by immunoblot analysis; type: functional, cell-based
A549 [30] = experiment: Induction of ER stress-activated unfolded protein response pathway-mediated apoptosis in human A549 cells assessed as increase in cleaved caspase-7 expression at 20 uM pre-treated with stress inhibitor 4-PBA before compound addition by immunoblot analysis; type: functional, cell-based
A549 [31] = experiment: Induction of ER stress-activated unfolded protein response pathway-mediated apoptosis in human A549 cells assessed as increase in cleaved PARP expression at 20 uM pre-treated with stress inhibitor 4-PBA before compound addition by immunoblot analysis; type: functional, cell-based
A549 [32] = experiment: Induction of ER stress-activated unfolded protein response pathway in human A549 cells assessed as increase in IRE1alpha-mediated splicing of XBP1 mRNA by measuring increase in 279-/261-base pair fragments at 20 uM within 3 hrs by RT-PCR analysis; type: functional, cell-based
A549 [33] = experiment: Induction of ER stress-activated unfolded protein response pathway in human A549 cells assessed as increase in IRE1alpha-mediated splicing of XBP1 mRNA by measuring increase in 540-base pair fragments at 20 uM after 12 hrs by RT-PCR analysis; type: functional, cell-based
A549 [34] = experiment: Induction of ER stress-activated unfolded protein response pathway in human A549 cells assessed as increase in IRE1alpha-mediated splicing of XBP1 mRNA by measuring increase in 540-base pair fragments at 20 uM after 24 hrs by RT-PCR analysis; type: functional, cell-based

In the case of `COc1cc(/C=C/C(=O)c2cc(OC)ccc2O)cc(OC)c1`, the Activity (A549 [1]) is reported as 16%, the Activity (A549 [2]) is reported as 9% and the Activity (A549 [3]) is reported as “Active”. For the same compound, the Activity (NCI-H460) was “Active”, the Activity (NCI-H1299) was “Active” and the viability at 5 µM (A549 [4]) was 90.1%. For the same compound, the viability at 10 µM (A549 [5]) was 83.9%, the viability at 20 µM (A549 [6]) was 50.8% and the Activity (A549 [7]) was 29.6 - 30%. For the same compound, the Activity (A549 [8]) was 29.8 - 30%, the Activity (A549 [9]) was 26 - 26.5% and the Activity (A549 [10]) was 14 - 14.1%. The Activity (A549 [11]) was 56%, the Activity (A549 [12]) was 18% and the Activity (A549 [13]) was “Active”. For the same compound, the Activity (A549 [14]) was “Active”, the Activity (A549 [15]) was “Active” and the Activity (A549 [16]) was “Active”. For the same compound, the Activity (A549 [17]) was “Active”, the Activity (A549 [18]) was “Active” and the Activity (A549 [19]) was “inactive”. For the same compound, the Activity (A549 [20]) was “inactive”, the Activity (MDA-MB-231) was “Active” and the Activity (MCF-12A) was “Non-Toxic”. The Activity [21] was “Active”, the Activity (A549 [22]) was “Active” and the Activity (A549 [23]) was “Active”. For the same compound, the Activity (A549 [24]) was “Active”, the Activity (A549 [25]) was “Active” and the Activity (A549 [26]) was “Active”. For the same compound, the Activity (A549 [27]) was “Active”, the Activity (A549 [28]) was “Dose-dependent effect” and the Activity (A549 [29]) was “Active”. For the same compound, the Activity (A549 [30]) was “Active”, the Activity (A549 [31]) was “Active” and the Activity (A549 [32]) was “Active”. The Activity (A549 [33]) was “Active” and the Activity (A549 [34]) was “inactive”.
